Experimental data as given in US20240108654A1, “COMBINATION OF A T CELL THERAPY AND A DGK INHIBITOR” (Juno Therapeutics, Inc., priority 2021, published 2024).

Tests used:
Type in all cases: cell-based, human
[1] = test system: anti-CD19 CAR-expressing T cells; experiment: Cytolytic activity of CAR-T cells concurrently treated during chronic stimulation, 2D re-challenge with CD19-expressing lymphoma cells; conditions: concurrent treatment during chronic stimulation; 2D re-challenge with K562.CD19, Granta-519, Raji without compound; higher concentrations
Method: (§1) To simulate conditions of chronic stimulation, approximately 20,000 anti-CD19 CAR-expressing T cells of a combined CAR-T cell composition produced as described in Example 1 from two healthy adult donors were incubated with 30 μg/mL of plate-bound CAR-specific anti-idiotypic antibody (see, e.g., WO2018/023100) at 37° C. for a period of seven days. During this seven-day period, engineered CAR T cells were concurrently treated with Compound 17 (0.1-1000 nM) or a vehicle control added at day 0.
(§2) Stimulated CAR T cells were then re-challenged with CD19-expressing tumor cells or tumor spheroids in the absence of Compound 17, and cytolytic activity and cytokine production were assessed.
To assess cytolytic function, the stimulated CAR-T cell composition was co-cultured with various CD19-expressing lymphoma cells at a 2.5:1 effector:target ratio. The tumor cells were engineered to express NucLight Red (NLR) and tumor cell number was monitored by Incucyte®. […] Duplicate values for cell compositions manufactured from the two different healthy donors are shown.

[2] = test system: anti-CD19 CAR-expressing T cells; experiment: Rescue treatment of chronically stimulated CAR-T cells: cytokine production (MSD), 2D co-culture; conditions: 48 hours 2D co-culture with K562.CD19, Granta-519, Raji
Method: Anti-CD19 CAR-expressing T cells, produced as described in Example 1, were chronically stimulated with plate-bound CAR-specific anti-idiotypic antibody for seven days as described in Example 2, but in the absence of Compound 17 during chronic stimulation. Instead, chronically stimulated CAR T cells were treated with Compound 17 during re-challenge with CD19-expressing tumor cells, after which cytolytic activity and cytokine production were assessed.
(§3) Supernatant was collected after 48 hours from the above co-cultures of chronically stimulated CAR-expressing T cells and CD19-expressing tumor cells. Cytokine production was measured from the supernatant by meso scale discovery (MSD) analysis of the collected cell supernatants. […] Duplicate values for cell compositions manufactured from the two different healthy donors are shown.

[3] = test system: anti-CD19 CAR-expressing T cells; experiment: Cytokine production (MSD) of CAR-T cells concurrently treated during chronic stimulation, 2D co-culture; conditions: concurrent treatment during chronic stimulation; 48 hours 2D co-culture with K562.CD19, Granta-519, Raji
Method: as §1, §2, §3

CC[C@H]1CN([C@@H](CC)c2ccc(C(F)(F)F)cc2)[C@H](CC)CN1c1nc(=O)n(C)c2ccc(C#N)nc12 [Compound 17, 4-((2S,5R)-2,5-diethyl-4-((S)-1-(4-(trifluoromethyl)phenyl)propyl)piperazin-1-yl)-1-methyl-2-oxo-1,2-dihydropyrido[3,2-d]pyrimidine-6-carbonitrile]
CAR-T cell cytolytic activity (tumor cell number) [1]: decreased the cytolytic activity | production of IFNγ, IL-2 and TNFα in supernatant [2]: dose-dependent increase in production of all three cytokines | production of IFNγ, IL-2 and TNFα in supernatant [3]: dose-dependent increase in production of all three cytokines
